Test results from the supplement of paper PMC11208160.

Assay: recombinant UMI read abundance after kanamycin selection (control-corrected) (log10(CPM+1)); higher = more efficient recombination; extreme values may be limits of the assay; sequences stand for … in AGTGCAGAGAAAATCGGCCAGTTTTCTCTGCCTGCAGTCCGCATGCCGTGGGACCCCTTGGGTTCTAACCTGTTGCCTAGATTTATGCAGCGGACTGCCTTTCTCCCAAAGTGATAAACCGG…AGGTTGGTTTCACT; site = the 11-nt donor
How it was run: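 Each donor and donor-binding-loop pair was tracked by a 12-nt UMI on a plasmid carrying a promoterless kanamycin gene. With a second plasmid supplying a fixed target and T7-inducible IS621 bridge recombinase, the pool was plated in Escherichia coli on IPTG (0.07 mM) plus kanamycin or unselected. Sequencing of recombinant UMIs across the donor–target junction gave counts expressed as log10(CPM+1) after replicate averaging and control-derived scaling.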
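Also: IS621 bridge recombinase in Escherichia coli cells against a fixed T5 target plasmid.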

| Sequence | recombinant UMI read abundance (log10) |
| --- | --- |
| GACAAACCATGGACCGGTTTTCCCGGTAATCCGTATTTGGT (site GACTAACCTAC) | 0 |
| GACAAACCATGGACCGGTTTTCCCGGTAATCCGTATTTGGT (site GAGAAACCTAC) | 0 |
| GACAAACCATGGACCGGTTTTCCCGGTAATCCGTATTTGGT (site GATAAACCTAC) | 0 |
| GACAAACCATGGACCGGTTTTCCCGGTAATCCGTATTTGGT (site GCCAAACCTAC) | 0 |
| GACAAACCATGGACCGGTTTTCCCGGTAATCCGTATTTGGT (site GGCAAACCTAC) | 0 |
| GACAAACCATGGACCGGTTTTCCCGGTAATCCGTATTTGGT (site GTCAAACCTAC) | 0 |
| GACAAACCATGGACCGGTTTTCCCGGTAATCCGTATTTGGT (site TACAAACCTAC) | 0 |
| GACAACCCATGGACCGGTTTTCCCGGTAATCCGTATTTGCT (site GACAACCCTAG) | 0.00684 |
| GACAACCCATGGACCGGTTTTCCCGGTAATCCGTATTTGGT (site GACAAACCTAC) | 0 |
| GACAACCCATGGACCGGTTTTCCCGGTAATCCGTATTTGGT (site GACAACCCTAC) | 0 |
| GACAACCCATGGACCGGTTTTCCCGGTAATCCGTATTTGGT (site GACAAGCCTAC) | 0.00882 |
| GACAACCCATGGACCGGTTTTCCCGGTAATCCGTATTTGGT (site GACAATCCTAC) | 0 |
| GACAAGCCATGGACCGGTTTTCCCGGTAATCCGTATTTGGT (site GACAAACCTAC) | 0 |
| GACAAGCCATGGACCGGTTTTCCCGGTAATCCGTATTTGGT (site GACAACCCTAC) | 0.00727 |
| GACAAGCCATGGACCGGTTTTCCCGGTAATCCGTATTTGGT (site GACAAGCCTAC) | 0 |
| GACAAGCCATGGACCGGTTTTCCCGGTAATCCGTATTTGGT (site GACAATCCTAC) | 0 |
| GACAATTCATGGACCGGTTTTCCCGGTAATCCGTATTTGAC (site GACAATTCTGT) | 0 |
| GACACATCATGGACCGGTTTTCCCGGTAATCCGTATTTGGT (site GACACATCTAC) | 2.25 |
| GACATACCATGGACCGGTTTTCCCGGTAATCCGTATTTGGT (site GACAAACCTAC) | 0 |
| GACATACCATGGACCGGTTTTCCCGGTAATCCGTATTTGGT (site GACACACCTAC) | 0.01 |
| GACATACCATGGACCGGTTTTCCCGGTAATCCGTATTTGGT (site GACAGACCTAC) | 0 |
| GACATACCATGGACCGGTTTTCCCGGTAATCCGTATTTGGT (site GACATACCTAC) | 0.0102 |
| GACCCGCCATGGACCGGTTTTCCCGGTAATCCGTATTTGAG (site GACCCGCCTCT) | 0.0157 |
| GACCCGCCATGGACCGGTTTTCCCGGTAATCCGTATTTGTG (site GACCCGCCTCA) | 0.0171 |
| GACCCGTCATGGACCGGTTTTCCCGGTAATCCGTATTTGTG (site GACCCGTCTCA) | 1.63 |

| Sequence | recombinant UMI read abundance (log10) |
| --- | --- |
| GACCGAGCATGGACCGGTTTTCCCGGTAATCCGTATTTGTA (site GACCGAGCTTA) | 1.19 |
| GACCTAGCATGGACCGGTTTTCCCGGTAATCCGTATTTGAA (site GACCTAGCTTT) | 0.349 |
| GACCTCACATGGACCGGTTTTCCCGGTAATCCGTATTTGAT (site GAACTCACTAT) | 0.0127 |
| GACCTCACATGGACCGGTTTTCCCGGTAATCCGTATTTGAT (site GACCTCACTAT) | 0.626 |
| GACCTCACATGGACCGGTTTTCCCGGTAATCCGTATTTGAT (site GAGCTCACTAT) | 0 |
| GACCTCACATGGACCGGTTTTCCCGGTAATCCGTATTTGAT (site GATCTCACTAT) | 0.00913 |
| GACCTCCCATGGACCGGTTTTCCCGGTAATCCGTATTTGTG (site GACCTCCCTCA) | 0.00533 |
| GACGACGCATGGACCGGTTTTCCCGGTAATCCGTATTTGGA (site GACGACGCTTC) | 2.48 |
| GACGTAACATGGACCGGTTTTCCCGGTAATCCGTATTTGTA (site GACGTAACTTA) | 2.19 |
| GACTAGTCATGGACCGGTTTTCCCGGTAATCCGTATTTGTG (site GACTAGTCTCA) | 1.64 |
| GACTCTTCATGGACCGGTTTTCCCGGTAATCCGTATTTGGC (site GACTCTTCTGC) | 1.04 |
| GACTGGACATGGACCGGTTTTCCCGGTAATCCGTATTTGGT (site GACTGGACTAC) | 0.826 |
| GACTTTGCATGGACCGGTTTTCCCGGTAATCCGTATTTGCA (site GACTTTGCTTG) | 0 |
| GAGATCACATGGACCGGTTTTCCCGGTAATCCGTATTTGAT (site GAGATCACTAT) | 2.13 |
| GAGATCACATGGACCGGTTTTCCCGGTAATCCGTATTTGAT (site GAGCTCACTAT) | 0.00919 |
| GAGATCACATGGACCGGTTTTCCCGGTAATCCGTATTTGAT (site GAGGTCACTAT) | 0.0122 |
| GAGATCACATGGACCGGTTTTCCCGGTAATCCGTATTTGAT (site GAGTTCACTAT) | 0.113 |
| GAGCAAGCATGGACCGGTTTTCCCGGTAATCCGTATTTGCA (site GAGCAAGCTTG) | 2.68 |
| GAGCAGACATGGACCGGTTTTCCCGGTAATCCGTATTTGTG (site GAGCAGACTCA) | 1.25 |
| GAGCCCACATGGACCGGTTTTCCCGGTAATCCGTATTTGAT (site GAGCACACTAT) | 0 |
| GAGCCCACATGGACCGGTTTTCCCGGTAATCCGTATTTGAT (site GAGCCCACTAT) | 1.66 |
| GAGCCCACATGGACCGGTTTTCCCGGTAATCCGTATTTGAT (site GAGCGCACTAT) | 0.0147 |
| GAGCCCACATGGACCGGTTTTCCCGGTAATCCGTATTTGAT (site GAGCTCACTAT) | 0.00621 |
| GAGCGCGCATGGACCGGTTTTCCCGGTAATCCGTATTTGCG (site GAGCGCGCTCG) | 1.56 |
| GAGCTCACATGGACCGGTTTTCCCGGTAATCCGTATTTGGT (site GAGCTCACTAA) | 0.274 |

| Sequence | recombinant UMI read abundance (log10) |
| --- | --- |
| GAGCTCACATGGACCGGTTTTCCCGGTAATCCGTATTTGGT (site GAGCTCACTAC) | 0.841 |
| GAGCTCACATGGACCGGTTTTCCCGGTAATCCGTATTTGGT (site GAGCTCACTAG) | 1.37 |
| GAGCTCACATGGACCGGTTTTCCCGGTAATCCGTATTTGGT (site GAGCTCACTAT) | 0.971 |
| GAGCTCGCATGGACCGGTTTTCCCGGTAATCCGTATTTGAT (site GAGCTCACTAT) | 1.7 |
| GAGCTCGCATGGACCGGTTTTCCCGGTAATCCGTATTTGAT (site GAGCTCCCTAT) | 0.626 |
| GAGCTCGCATGGACCGGTTTTCCCGGTAATCCGTATTTGAT (site GAGCTCGCTAT) | 2.26 |
| GAGCTCGCATGGACCGGTTTTCCCGGTAATCCGTATTTGAT (site GAGCTCTCTAT) | 1.37 |
| GAGGAAACATGGACCGGTTTTCCCGGTAATCCGTATTTGCT (site GAGGAAACTAG) | 0 |
| GAGGAACCATGGACCGGTTTTCCCGGTAATCCGTATTTGGA (site GAGGAACCTTC) | 0.00548 |
| GAGGATGCATGGACCGGTTTTCCCGGTAATCCGTATTTGAA (site GAGGATGCTTT) | 2.56 |
| GAGGTAGCATGGACCGGTTTTCCCGGTAATCCGTATTTGAT (site GAGGTAGCTAT) | 2.43 |
| GAGTAGCCATGGACCGGTTTTCCCGGTAATCCGTATTTGTC (site GAGTAGCCTGA) | 0 |
| GAGTGGACATGGACCGGTTTTCCCGGTAATCCGTATTTGAC (site GAATGGACTGT) | 1.75 |
| GAGTGGACATGGACCGGTTTTCCCGGTAATCCGTATTTGAC (site GACTGGACTGT) | 0.208 |
| GAGTGGACATGGACCGGTTTTCCCGGTAATCCGTATTTGAC (site GAGTGGACTGT) | 2.6 |
| GAGTGGACATGGACCGGTTTTCCCGGTAATCCGTATTTGAC (site GATTGGACTGT) | 0 |
| GATAAGCCATGGACCGGTTTTCCCGGTAATCCGTATTTGCC (site GATAAGCCTGG) | 0 |
| GATACGTCATGGACCGGTTTTCCCGGTAATCCGTATTTGTT (site GATACGTCTAA) | 0.338 |
| GATACGTCATGGACCGGTTTTCCCGGTAATCCGTATTTGTT (site GCTACGTCTAA) | 0.00442 |
| GATACGTCATGGACCGGTTTTCCCGGTAATCCGTATTTGTT (site GGTACGTCTAA) | 0.0473 |
| GATACGTCATGGACCGGTTTTCCCGGTAATCCGTATTTGTT (site GTTACGTCTAA) | 0.0167 |
| GATAGATCATGGACCGGTTTTCCCGGTAATCCGTATTTGAG (site GATAGATCTCT) | 1.83 |
| GATCATCCATGGACCGGTTTTCCCGGTAATCCGTATTTGCT (site GATAATCCTAG) | 0 |
| GATCATCCATGGACCGGTTTTCCCGGTAATCCGTATTTGCT (site GATCATCCTAG) | 0.452 |
| GATCATCCATGGACCGGTTTTCCCGGTAATCCGTATTTGCT (site GATGATCCTAG) | 0 |
